{"source": "patent US20160030459A1", "about": "“COMPOSITIONS AND METHODS FOR TREATING ALLERGIC CONDITIONS” (IMMUNE DESIGN CORP., priority 2014, published 2016)", "key": {"[1]": {"tested_on": "various human cell types", "assay": "Effect of GLA adjuvant in vitro on cytokine expression of human cells", "assay_type": "cell-based", "procedure": "(§1) The effect of GLA adjuvant in vitro on various human cell types was evaluated."}, "[2]": {"tested_on": "dendritic cells (both myeloid and monocyte-derived)", "assay": "Activation and maturation of dendritic cells in vitro", "assay_type": "cell-based, human", "procedure": "as §1"}, "[3]": {"tested_on": "Male cynomolgus macaques with a known sensitivity to inhaled Ascaris suum", "assay": "Primate model of allergic rhinitis, intranasal adjuvant", "assay_type": "in vivo, cynomolgus macaque", "procedure": "GLA adjuvant was evaluated in a nonhuman primate allergic rhinitis model. Male cynomolgus macaques with a known sensitivity to inhaled Ascaris suum were treated with a composition comprising a GLA adjuvant, in an aqueous formulation, via intranasal delivery.\n12 animals were assigned randomly to each of vehicle or drug treatment groups. The drug treatment group received 100 μl of a composition containing 5.0 μg GLA adjuvant in an aqueous formulation, intranasally in each nostril, for a total dose of 10 μg. The vehicle group received 100 μl of vehicle in each nostril. The adjuvant or vehicle was administered intranasally once weekly for 4 consecutive weeks. All intranasal dosing was administered using a Penn Century Microsprayer.\nThe animals were challenged with Ascaris suum into the left nostril concurrent with treatment on days 0 and 14 (at the first and third treatment times).\nAnimals with severe rhinitis have reduced nasal area or increased nasal congestion as compared to those with improved response and increased nasal area or decreased nasal congestion. Nasal lavage samples were also obtained and total and differential cell count were evaluated.\nBriefly, animals were sedated and placed on a ventilator. Blood samples were drawn. A baseline Acoustic Rhinometer measurement (nasal volume and nasal minimum cross-sectional area) was taken in the left nostril followed by instillation of 100 μl saline using a microspayer. After instillation of saline, Acoustic Rhinometry measurements (nasal volume and nasal minimum cross-sectional area) were taken at 2 minutes. Next 100 μl of A. suum (10.0 mg/ml) was instilled into the left nostril using a microsprayer and Acoustic Rhinometry measurements were taken at 1, 2, 3 minutes. Fifteen minutes after A. suum challenge a nasal lavage was performed using 3.0 ml saline injected into the left nostril. After nasal lavage, sedation was reversed.\nTotal cell count in the nasal lavage samples was determined using the Advia120 hematology analyzer (SOP BW-INM-Resp-SOP-09033). Differential cell counts were performed with cystospins manually on 200 cells using standard morphological criteria."}, "[4]": {"tested_on": "OVA-sensitized mice", "assay": "Prophylactic dosing regimens in murine model of allergy", "assay_type": "in vivo, mouse", "procedure": "Three different prophylactic dosing regimens of GLA adjuvant, in an aqueous formulation, were evaluated in the same murine model of allergy described in Example 2. Mice were divided into three treatment arms (20 mice per group), treated as follows starting at 1 week post OVA sensitization, and then challenged with OVA or saline (negative control):\nVehicle-treated at day 14; Saline challenged (negative control) Vehicle-treated at day 14; OVA challenged (positive control) GLA-treated at day 14, with a single dose of GLA (2 ug/animal, i.n.); OVA challenged GLA-treated on days 14, 15, 16, 17, with 4 doses of GLA on consecutive days (each dose 2 ug/animal, i.n.); OVA challenged GLA+Ag-treated on day 14, single dose GLA (2 ug/animal, i.n.)+OVA antigen (20 ug/animal, i.n.); OVA challenged\nThe animals were challenged with OVA or saline i.n. for 4 consecutive days, 5-7 days post treatment (at days 22, 23, 24 and 25). Airway hyperresponsiveness (AHR) was determined at 1 or 2 days post challenge (the large number of animals required two days to complete the AHR testing). Bronchoalveolar lavage fluid (BALF), thoracic lymph nodes and spleen were collected for FACS & cytokine analysis, and serum was collected for IgE and IgG levels."}, "[5]": {"tested_on": "Male Balb/c mice sensitized with OVA", "assay": "Murine model of chronic allergy (OVA-induced airway inflammation and hyperreactivity)", "assay_type": "in vivo, mouse", "procedure": "The effect of GLA was evaluated in a chronic model Of OVA-induced airway inflammation and airway hyperreactivity in mice. Male Balb/c mice were sensitized systemically with OVA i.p. over a 2 week period (days 0 & 14). One week later, they were challenged with OVA i.n for 3 consecutive days (days 22 through 24). The animals were then treated once with GLA, in an aqueous formulation, i.n., 1 day post-challenge (day 25) as follows (20 mice per group):\nVehicle-treated; Saline challenged (negative control) Vehicle-treated; OVA challenged (positive control) GLA-treated, single dose (2 ug/animal, i.n.); OVA challenged\nThe animals were challenged again with OVA i.n. 1 month later (days 55 & 56). AHR as described above in Example 2 was performed 1-2 days post 2nd challenge (the large number of animals required two days to complete the AHR testing). Bronchoalveolar lavage fluid (BALF), thoracic lymph nodes and spleen were collected for FACS & cytokine analysis, and serum was collected for IgE and IgG levels."}, "[6]": {"tested_on": "Male cynomolgus macaques with a known sensitivity to inhaled Ascaris suum", "assay": "Primate model of allergic rhinitis, intramuscular adjuvant", "assay_type": "in vivo, cynomolgus macaque", "details": "GLA 10 ug intramuscularly, four weekly doses; ascaris antigens intranasally", "procedure": "GLA adjuvant was evaluated in a nonhuman primate allergic rhinitis model. Male cynomolgus macaques with a known sensitivity to inhaled Ascaris suum were treated with a composition comprising a GLA adjuvant, in an oil-based emulsion formulation, with and without allergen, via intramuscular delivery.\nAnimals (n=12) were treated with four doses of GLA (10 ug) at weekly intervals and were exposed to Ascaris suum antigens at the same time. The evaluation of the response was determined by acoustic rhinometry which measured the nasal area as an indication of congestion Animals with severe rhinitis have reduced nasal area or increased nasal congestion as compared to those with improved response and increased nasal area or decreased nasal congestion.\nIn this study, animals treated with GLA-SE were compared with animals treated with SE alone. In addition, ascaris antigens in conjunction with GLA were tested. Ascaris antigens were either delivered in combination with GLA via the intramuscular route of administration, or were delivered intranasally separate from the intramuscular GLA treatment."}, "[7]": {"tested_on": "mice presensitized with intra-gastric RPE", "assay": "Murine model of peanut allergy, related study with GLA-SE +/- peanut extract", "assay_type": "in vivo, mouse", "details": "with or without antigen, s.c.", "procedure": "In a related study, mice were presensitized with intra-gastric RPE six times at days 0, 1, 2, 7, 14 and 21 (FIG. 15). On days 29, 35, 42 and 49, mice were treated subcutaneously with 2 ug GLA-SE or 2 ug GLA-SE+50 ug RPE. Mice were subsequently challenged by intraperitoneal administration on study day 55 with 12 mg RPE. Anaphylaxis scores and body temperature of mice were then measured. […] Disease scoring was as follows: 1: mild anaphylaxis (scratching, mild snout swelling); 2: Moderate anaphylaxis (mod swelling, mild lethargy) 3: =Severe anaphylaxis (severe swelling, lethargy); 4: Very severe anaphylaxis (moribund, labored breathing); 5: Death."}, "[8]": {"tested_on": "PBMCs from peanut allergic subjects", "assay": "T cell proliferation and cytokine expression of PBMCs from peanut-allergic subjects", "assay_type": "cell-based, human", "source_text": "PBMCs were collected from peanut allergic and non-allergic subjects (n=4) and evaluated for T cell proliferation and cytokine expression after exposure to peanut extract and GLA. […] In addition, these samples had increased tolerogenic IL-10 expression and […] IL-2 expression indicative of inhibition of T cell proliferation."}, "[9]": {"tested_on": "PBMCs from Timothy Grass allergic subjects", "assay": "Cytokine expression of PBMCs from Timothy grass-allergic subjects", "assay_type": "cell-based, human", "details": "Timothy grass allergen and GLA", "source_text": "PBMCs were collected from Timothy Grass allergic and non-allergic subjects and evaluated for T cell cytokine expression after exposure to Timothy grass allergen and GLA. As shown in FIG. 16A-16D, GLA decreased IL-5 and increased IFN-γ, IL-12 and TNF-alpha cytokine response to Timothy grass allergen."}, "[10]": {"details": "treatment period (weeks 1-4) and 4 weeks post treatment (weeks 5-8)"}, "[11]": {"details": "4 doses on days 14, 15, 16, 17, each 2 ug/animal i.n."}, "[12]": {"details": "single dose day 14, 2 ug/animal i.n."}, "[13]": {"details": "Day 1 after peanut extract and GLA exposure"}}, "data": [{"smiles": "CCCCCCCCCCCCCC(=O)OC(CCCCCCCCCCC)CC(=O)NC1C(OCC2OC(O)C(NC(=O)CC(O)CCCCCCCCCCC)C(OC(=O)CC(O)CCCCCCCCCCC)C2O)OC(CO)C(OP(=O)(O)O)C1OC(=O)CC(CCCCCCCCCCC)OC(=O)CCCCCCCCCCCCC", "note": "(centres unmarked) [GLA, glucopyranosyl lipid A]", "values": [{"measurement": "GM-CSF expression", "setting": "[1]", "result": "induced expression"}, {"measurement": "IL-1β expression", "setting": "[1]", "result": "induced expression"}, {"measurement": "IL-6 expression", "setting": "[1]", "result": "induced expression"}, {"measurement": "IL-8 expression", "setting": "[1]", "result": "induced expression"}, {"measurement": "IL-10 expression", "setting": "[1]", "result": "induced expression"}, {"measurement": "TNF-α expression", "setting": "[1]", "result": "induced expression"}, {"measurement": "activation and maturation of dendritic cells", "setting": "[2]", "result": "induced activation and maturation"}, {"measurement": "percentage of baseline nasal cross sectional area", "setting": "[3]; 10 μg intranasal once weekly for 4 weeks, compared with vehicle", "result": "increased"}, {"measurement": "antigen-induced nasal congestion", "setting": "[3]; aqueous formulation, 10 μg intranasal once weekly for 4 weeks, A. suum challenge", "result": "reduced"}, {"measurement": "differential cell count (lymphocyte, monocyte, granuolocyte, neutrophil, eosinophil or basophil cell numbers)", "setting": "[3]; [10]", "result": "not altered"}, {"measurement": "platelet counts", "setting": "[3]; [10]", "result": "did not alter"}, {"measurement": "red blood cell counts", "setting": "[3]; [10]", "result": "did not alter"}, {"measurement": "white blood cell counts", "setting": "[3]; [10]", "result": "did not alter"}, {"measurement": "CD3+ T cells in BALF", "setting": "[4]; [11]", "result": "decreased"}, {"measurement": "eosinophil in BALF", "setting": "[4]; [11]", "result": "decreased"}, {"measurement": "total leukocytes in BALF", "setting": "[4]; [11]", "result": "decreased"}, {"measurement": "cellularity systemically, in spleen or lymph nodes", "setting": "[4]; i.n. GLA treatment", "result": "did not alter"}, {"measurement": "numbers of CD3+ T cells in BALF", "setting": "[4]; [12]", "result": "did not alter"}, {"measurement": "numbers of eosinophils in BALF", "setting": "[4]; [12]", "result": "did not alter"}, {"measurement": "numbers of macrophages in BALF", "setting": "[4]; [12]", "result": "did not alter"}, {"measurement": "leukocyte cell count in BALF (including eosinophil, macrophage or CD3+ T cell counts)", "setting": "[5]; single dose 2 ug/animal i.n.", "result": "did not alter"}, {"measurement": "time after GLA dosing for which effects could be observed", "setting": "[5]; single dose 2 ug/animal i.n.", "result": "at least 1 month"}, {"measurement": "airway hyperresponsiveness", "setting": "[5]; single dose 2 ug/animal i.n. day 25, 1 month before allergen challenge", "result": "attenuate"}, {"measurement": "IL-4 expression in the airway after allergen challenge", "setting": "[5]; single dose 2 ug/animal i.n. one month before allergen challenge", "result": "attenuate"}, {"measurement": "nasal rhinitis scores", "setting": "[6]", "result": "did not improve"}, {"measurement": "peanut allergy in a mouse model", "setting": "[7]", "result": "attenuates"}, {"measurement": "IL12p70 (IL-12) expression", "setting": "[8]; [13]", "result": "increased"}, {"measurement": "IL-2 expression", "setting": "[8]; [13]", "result": "increased"}, {"measurement": "interferon gamma expression", "setting": "[8]; [13]", "result": "increased"}, {"measurement": "tolerogenic IL-10 expression", "setting": "[8]; [13]", "result": "increased"}, {"measurement": "CD4 T cell proliferation", "setting": "[8]; Day 6 after exposure to peanut extract and GLA", "result": "dose-dependent antigen specific inhibition"}, {"measurement": "IL-12 cytokine response to Timothy grass allergen", "setting": "[9]; 2 day culture", "result": "increases"}, {"measurement": "TNF-alpha cytokine response to Timothy grass allergen", "setting": "[9]; 2 day culture", "result": "increases"}, {"measurement": "IFN-γ cytokine response to Timothy grass allergen", "setting": "[9]; 6 day culture", "result": "increases"}, {"measurement": "IL-5 cytokine response to Timothy grass allergen", "setting": "[9]; 6 day culture", "result": "decreases"}]}]}
